Earlier results in article PMC3691235, “Discovery of a Novel Dual Fungal CYP51/Human 5-Lipoxygenase Inhibitor: Implications for Anti-Fungal Therapy” (PLoS ONE, 2013).
pIC50, pKd: −log10 of the molar value.

Tests used:
[1] = molecular target: T1, Human leukocyte 5-lipoxygenase (Homo sapiens, UniProt P09917); details: ref [12], [13]; read-out: 5-LOX IC50; cited from earlier work
T1 construct: made in house
T1 sequence (P09917 1-674): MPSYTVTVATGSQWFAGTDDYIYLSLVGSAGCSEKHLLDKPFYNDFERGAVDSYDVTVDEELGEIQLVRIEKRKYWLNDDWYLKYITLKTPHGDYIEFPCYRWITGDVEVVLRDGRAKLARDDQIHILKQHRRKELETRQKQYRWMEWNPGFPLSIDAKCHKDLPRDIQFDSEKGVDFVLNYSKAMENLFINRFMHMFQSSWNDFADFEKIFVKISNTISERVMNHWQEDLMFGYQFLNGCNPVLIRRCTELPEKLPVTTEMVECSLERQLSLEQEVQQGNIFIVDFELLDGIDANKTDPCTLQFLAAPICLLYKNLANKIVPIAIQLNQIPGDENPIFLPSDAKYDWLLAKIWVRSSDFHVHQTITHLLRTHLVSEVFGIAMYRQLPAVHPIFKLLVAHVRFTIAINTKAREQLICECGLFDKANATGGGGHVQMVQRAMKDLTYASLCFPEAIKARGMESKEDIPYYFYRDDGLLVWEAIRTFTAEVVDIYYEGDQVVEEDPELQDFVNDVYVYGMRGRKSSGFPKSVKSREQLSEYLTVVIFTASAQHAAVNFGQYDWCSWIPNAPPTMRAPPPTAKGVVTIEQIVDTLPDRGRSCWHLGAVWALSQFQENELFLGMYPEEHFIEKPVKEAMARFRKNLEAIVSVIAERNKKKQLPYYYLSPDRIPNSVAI

[2] = molecular target: T2, Homo sapiens CYP51 (HsCYP51) (Homo sapiens, UniProt Q16850); parameters: method as in PMID 20149798; details: ref [40]; read-out: Kd with HsCYP51, previously reported; cited from earlier work
T2 construct: made in house; host or cells: E. coli
T2 sequence (Q16850 1-509): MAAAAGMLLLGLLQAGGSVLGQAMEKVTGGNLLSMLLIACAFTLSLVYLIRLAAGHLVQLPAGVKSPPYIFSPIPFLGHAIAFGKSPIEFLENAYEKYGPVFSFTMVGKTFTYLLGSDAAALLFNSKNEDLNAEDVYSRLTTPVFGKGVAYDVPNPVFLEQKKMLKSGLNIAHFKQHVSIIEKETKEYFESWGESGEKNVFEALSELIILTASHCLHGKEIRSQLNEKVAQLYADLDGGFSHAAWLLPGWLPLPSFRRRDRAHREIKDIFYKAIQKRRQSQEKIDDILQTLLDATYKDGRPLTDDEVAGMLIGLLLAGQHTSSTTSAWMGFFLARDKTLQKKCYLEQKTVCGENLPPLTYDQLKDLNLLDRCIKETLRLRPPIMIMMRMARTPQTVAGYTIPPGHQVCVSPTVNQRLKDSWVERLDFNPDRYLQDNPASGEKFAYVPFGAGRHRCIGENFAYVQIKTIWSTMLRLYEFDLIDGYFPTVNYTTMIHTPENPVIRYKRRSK

Q: With `CCC(C)n1ncn(-c2ccc(N3CCN(c4ccc(OCC5COC(Cn6cncn6)(c6ccc(Cl)cc6Cl)O5)cc4)CC3)cc2)c1=O` (centres unmarked) [itraconazole] as the compound, how does the pIC50 [1] read?
A: The pIC50 was less than 4.30.

Q: With `Clc1ccc(COC(Cn2ccnc2)c2ccc(Cl)cc2Cl)c(Cl)c1` (centres unmarked) [miconazole] as the compound, how does the pKd [2] read?
A: Its pKd is greater than 7.00.
